The values that follow come from ChEMBL document CHEMBL2203043, “Carbonic anhydrase inhibitors. Regioselective synthesis of novel series 1-substituted 1,4-dihydro-4-oxo-3-pyridinesulfonamides and their inhibition of the human cytosolic isozymes I and II and transmembrane cancer-associated isozymes IX and XII” (Eur J Med Chem, 2012).

pKi: −log10 of the molar value.

In one test the target is Carbonic anhydrase 9 (Homo sapiens, UniProt Q16790). Description: Inhibition of human CA9 after 15 mins by stopped-flow CO2 hydrase assay.
What is called pKi is the Ki on a negative log10 scale, so that one unit is a factor of ten. High values mean a small Ki, low ones a large Ki. As for `COC(=O)c1ccccc1NC(=O)Cn1ccc(=O)c(S(N)(=O)=O)c1`, the pKi is 7.06.
Take `Cc1ccc(-n2c(Cn3ccc(=O)c(S(N)(=O)=O)c3)nc3ccccc3c2=O)cc1`: the negative logarithm of the Ki (pKi) was 7.15.
Same read-out and setting: as for `NS(=O)(=O)c1cn(CC(=O)Nc2cccc([N+](=O)[O-])c2)ccc1=O`, the figure is 7.48; as for `CC1=NN(c2nc(N)nc(Cn3ccc(=O)c(S(N)(=O)=O)c3)n2)C(C)(C)C1`, 7.18; as for `NS(=O)(=O)c1cn(CC2CC2)ccc1=O`, 7.07.
On the same count and under the same terms, then `Cc1noc(C)c1Cn1ccc(=O)c(S(N)(=O)=O)c1`, with 7.64; and `NS(=O)(=O)c1cn(Cc2nc3ccccc3c(=O)n2-c2ccc(Cl)cc2)ccc1=O`, with 7.15; and `CCOC(=O)Cn1ccc(=O)c(S(N)(=O)=O)c1`, with 7.22.
For the compound `CN(C)c1nc(N)nc(Cn2ccc(=O)c(S(N)(=O)=O)c2)n1`, the pKi was 7.78.
Same read-out and setting: as for `NS(=O)(=O)c1cn(CC(=O)NNC(=O)c2ccco2)ccc1=O`, the figure is 7.25; as for `NS(=O)(=O)c1cn(CC(=O)NS(=O)(=O)c2ccccc2Cl)ccc1=O`, 7.53.
For the compound `NS(=O)(=O)c1cn(CC(=O)NS(=O)(=O)c2ccc([N+](=O)[O-])cc2)ccc1=O`, the negative logarithm of the Ki (pKi) was 7.19. This pKi lies 0.34 log units lower than the previous one.
With `N#CCCCn1ccc(=O)c(S(N)(=O)=O)c1`, the negative logarithm of the Ki (pKi) was 7.17.
As for `Cc1ccc(S(=O)(=O)NNC(=O)Cn2ccc(=O)c(S(N)(=O)=O)c2)cc1`, the pKi is 7.93.
For the compound `NS(=O)(=O)c1cn(Cc2nc3ccccc3c(=O)n2-c2ccccc2)ccc1=O`, the pKi was 7.12. This pKi is 0.81 log units lower than that of the compound before.
Consider `CC1=NN(c2nc(N)nc(Cn3ccc(=O)c(S(N)(=O)=O)c3)n2)CC1`, for which the pKi is 7.11.
Compound `NS(=O)(=O)c1cn(CC(=O)Nc2ccc(Cl)c([N+](=O)[O-])c2)ccc1=O` showed a pKi of 7.22.
Still for that read-out and setting: then `NS(=O)(=O)c1cn(CC(=O)Nc2ccc(Cl)cc2)ccc1=O`, with 7.03; and `CCN(c1ccccc1)c1nc(N)nc(Cn2ccc(=O)c(S(N)(=O)=O)c2)n1`, with 7.30.
For `NS(=O)(=O)c1cn(CC(=O)NS(=O)(=O)c2ccc(Cl)cc2)ccc1=O`, the negative-log Ki (pKi) was 7.41.
Take `Nc1nc(Cn2ccc(=O)c(S(N)(=O)=O)c2)nc(N2CCOCC2)n1`: the pKi is 7.14.
`NS(=O)(=O)c1cn(CCO)ccc1=O` had a pKi of 7.26.
In the case of `Cc1cccc(C)c1NC(=O)Cn1ccc(=O)c(S(N)(=O)=O)c1`, the pKi is 7.76.

For a further test, the species on record is Homo sapiens. Put plainly: Selectivity ratio of Ki for human CA2 to Ki for human CA9.
Consider `NS(=O)(=O)c1ccc(S(=O)(=O)Nc2cccc3c(Cl)c[nH]c23)cc1`, for which the Ratio Ki amounted to 0.33.
Regarding `CC(=O)Nc1nnc(S(N)(=O)=O)s1`, the Ratio Ki came to 0.33.
Still for that read-out and setting: then `CC(=O)/N=c1/sc(S(N)(=O)=O)nn1C`, with 0.33; and `CCOc1ccc2nc(S(N)(=O)=O)sc2c1`, with 0.33; and `NS(=O)(=O)c1cc(Cl)c(Cl)c(S(N)(=O)=O)c1`, with 0.33.
